Experimental data as given in ChEMBL document CHEMBL1201862, “PubChem BioAssay data set” (2004).
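Interpolation was linear, between the two tested concentrations surrounding the appropriate level; five concentrations were tested over 48 hours in 96-well plates. Abbreviation: GI50, concentration required for 50% inhibition of growth.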 Activity calls are given as the source filed them. Cut-off read from the data, not from the text of the source: active = GI50 up to about 1.1 µM and inactive = higher.

Columns and labels:
Test in all cases: NCI tumour cell line growth inhibition, 48 h
OVCAR-5 = system: OVCAR-5
Malme-3M = system: Malme-3M
TK-10 = system: TK-10
RXF 393 = system: RXF 393
RPMI-8226 = system: RPMI-8226
A498 = system: A498
UO-31 = system: UO-31
K562 = system: K562
SN12C = system: SN12C
SNB-19 = system: SNB-19
SW-620 = system: SW-620
IGROV-1 = system: IGROV-1
NCI-H23 = system: NCI-H23
A549 = system: A549
HCC 2998 = system: HCC 2998
SK-MEL-5 = system: SK-MEL-5
MDA-N = system: MDA-N
NCI-H460 = system: NCI-H460
KM12 = system: KM12
OVCAR-3 = system: OVCAR-3
HCT-15 = system: HCT-15
SF-539 = system: SF-539
MCF7 = system: MCF7
HCT-116 = system: HCT-116
HL-60 = system: HL-60
CAKI-1 = system: CAKI-1
786-0 = system: 786-0
SF-295 = system: SF-295
Hs-578T = system: Hs-578T
UACC-62 = system: UACC-62
EKVX = system: EKVX
COLO 205 = system: COLO 205
ACHN = system: ACHN
OVCAR-8 = system: OVCAR-8
UACC-257 = system: UACC-257
OVCAR-4 = system: OVCAR-4
U-251 = system: U-251
SK-MEL-2 = system: SK-MEL-2
HOP-62 = system: HOP-62
SF-268 = system: SF-268
SR = system: SR
MOLT-4 = system: MOLT-4
LOX IMVI = system: LOX IMVI
SK-MEL-28 = system: SK-MEL-28
HOP-92 = system: HOP-92
NCI-H522 = system: NCI-H522
DU-145 = system: DU-145
MDA-MB-231 = system: MDA-MB-231
NCI-H226 = system: NCI-H226
MDA-MB-435 = system: MDA-MB-435
BT-549 = system: BT-549
M14 = system: M14
HT-29 = system: HT-29
NCI/ADR-RES = system: NCI/ADR-RES
PC-3 = system: PC-3

For `Cc1nc2sccn2c1C(=O)OCCOCCOCCOCCOC(=O)c1c(C)nc2sccn12`, the GI50 (OVCAR-5) was > 100 µM (inactive), the GI50 (Malme-3M) was > 100 µM (inactive) and the GI50 (TK-10) was > 100 µM (inactive). The GI50 (RXF 393) was > 100 µM (inactive), the GI50 (RPMI-8226) was 52.7 µM (inactive) and the GI50 (A498) was > 100 µM (inactive). For the same molecule, the GI50 (UO-31) was 70.5 µM (inactive), the GI50 (K562) was 35.5 µM (inactive) and the GI50 (SN12C) was > 100 µM (inactive). The GI50 (SNB-19) was > 100 µM (inactive), the GI50 (SW-620) was > 100 µM (inactive) and the GI50 (IGROV-1) was > 100 µM (inactive). For the same molecule, the GI50 (NCI-H23) was 19.5 µM (inactive), the GI50 (A549) was > 100 µM (inactive) and the GI50 (HCC 2998) was > 100 µM (inactive). For the same molecule, the GI50 (SK-MEL-5) was 11.7 µM (inactive), the GI50 (MDA-N) was 36.1 µM (inactive) and the GI50 (NCI-H460) was 80.7 µM (inactive). The GI50 (KM12) was 49.7 µM (inactive), the GI50 (OVCAR-3) was > 100 µM (inactive) and the GI50 (HCT-15) was > 100 µM. The GI50 (SF-539) was 77.4 µM (inactive), the GI50 (MCF7) was 61.5 µM (inactive) and the GI50 (HCT-116) was > 100 µM (inactive). The GI50 (HL-60) was 15.7 µM (inactive), the GI50 (CAKI-1) was > 100 µM (inactive) and the GI50 (786-0) was > 100 µM (inactive). For the same molecule, the GI50 (SF-295) was 63.4 µM (inactive), the GI50 (Hs-578T) was > 100 µM (inactive) and the GI50 (UACC-62) was 38.6 µM (inactive). For the same molecule, the GI50 (EKVX) was 32.1 µM (inactive), the GI50 (COLO 205) was 86.7 µM (inactive) and the GI50 (ACHN) was > 100 µM (inactive). The GI50 (OVCAR-8) was 39.6 µM (inactive), the GI50 (UACC-257) was 16.5 µM (inactive) and the GI50 (OVCAR-4) was 71.8 µM (inactive). For the same molecule, the GI50 (U-251) was > 100 µM (inactive), the GI50 (SK-MEL-2) was 76.4 µM (inactive) and the GI50 (HOP-62) was > 100 µM (inactive). For the same molecule, the GI50 (SF-268) was > 100 µM (inactive), the GI50 (SR) was 45.9 µM (inactive) and the GI50 (MOLT-4) was 18.2 µM (inactive). The GI50 (LOX IMVI) was 57.3 µM (inactive), the GI50 (SK-MEL-28) was 90.2 µM (inactive) and the GI50 (HOP-92) was > 100 µM (inactive). For the same molecule, the GI50 (NCI-H522) was 48.8 µM (inactive), the GI50 (DU-145) was > 100 µM (inactive) and the GI50 (MDA-MB-231) was > 100 µM (inactive). For the same molecule, the GI50 (NCI-H226) was 16 µM (inactive), the GI50 (MDA-MB-435) was 45.4 µM (inactive) and the GI50 (BT-549) was 34.6 µM (inactive). The GI50 (M14) was 43.4 µM (inactive), the GI50 (HT-29) was > 100 µM (inactive) and the GI50 (NCI/ADR-RES) was 27.9 µM (inactive). The GI50 (PC-3) was 63.2 µM (inactive).
